pIC50: −log10 of the molar value.
What was measured:
[1] = Cytotoxicity against human KB 8.5 cells expressing MDR1 assessed as decrease in cell viability after 4 days by MTS assay; assay type: functional, cell-based; conditions: KB 8.5, 96 h
[2] = Cytotoxicity against human NCI-N87 cells assessed as decrease in cell viability after 4 days by MTS assay; assay type: functional, cell-based; conditions: NCI-N87, 96 h
[3] = Cytotoxicity against human MDA-MB-361/DYT2 cells assessed as decrease in cell viability after 4 days by MTS assay; assay type: functional, cell-based; conditions: MDA-MB-361, 96 h
KB = experiment: Resistance ratio of IC50 for human KB 8.5 cells expressing MDR1 to IC50 for MDR1 deficient human KB cells; assay type: functional
[4] = Cytotoxicity against MDR1 deficient human KB cells assessed as decrease in cell viability after 4 days by MTS assay; assay type: functional, cell-based; conditions: 96 h

SMILES	pIC50 [1]	pIC50 [2]	pIC50 [3]	Ratio IC50 (KB)	pIC50 [4]
CC[C@H](C)[C@H](NC(=O)[C@H]1CCCCN1C)C(=O)N(C)[C@H](C[C@@H](OC(C)=O)c1nc(C(=O)N[C@H](CNS(C)(=O)=O)Cc2ccccc2)cs1)C(C)C	7.50	9.33	9.57	36	9.05
CC[C@H](C)[C@H](NC(=O)[C@@]1(C)CCCN1C)C(=O)N(C)[C@H](C[C@@H](OC(C)=O)c1nc(C(=O)N[C@@H](Cc2ccccc2)C[C@H](C)C(=O)O)cs1)C(C)C	8.99	9.89	10.15	9	9.96
CC[C@H](C)[C@H](NC(=O)[C@H]1CCCCN1C)C(=O)N(C)[C@H](C[C@@H](OC(C)=O)c1nc(C(=O)N[C@@H](Cc2ccccc2)C[C@H](C)C(=O)OC)cs1)C(C)C	9.15	9.49	9.66	3	9.66
CC[C@H](C)[C@H](NC(=O)[C@@]1(C)CCCN1C)C(=O)N(C)[C@H](C[C@@H](O)c1nc(C(=O)N[C@@H](Cc2ccc(N)cc2)C[C@H](C)C(=O)O)cs1)C(C)C	< 6.00	< 6.00	< 6.00		6.11
CC[C@H](C)[C@H](NC(=O)[C@@]1(C)CCCN1C)C(=O)N(C)[C@H](C[C@@H](OC(C)=O)c1nc(C(=O)N[C@@H](Cc2ccccc2)[C@@H](O)C(=O)OC)cs1)C(C)C	7.55	8.00	8.22	5	8.20
CC[C@H](C)[C@H](NC(=O)[C@@]1(C)CCCN1)C(=O)N(C)[C@H](C[C@@H](OC(C)=O)c1nc(C(=O)N[C@@H](Cc2ccccc2)C[C@H](C)C(=O)OC)cs1)C(C)C	6.75	7.23	7.62	9	7.73
CC[C@H](C)[C@H](NC(=O)[C@@]1(C)CCCN1C)C(=O)N(C)[C@H](C[C@@H](OC(C)=O)c1nc(C(=O)N[C@@H](Cc2ccccc2)c2nccs2)cs1)C(C)C	6.98	7.53	7.66	3	7.42
CC[C@H](C)[C@H](NC(=O)C(C)(C)N(C)C)C(=O)N(C)[C@H](C[C@@H](OC(C)=O)c1nc(C(=O)N[C@@H](Cc2ccccc2)C[C@H](C)C(=O)OC)cs1)C(C)C	7.27	8.01	8.47	11	8.33
CC[C@H](C)[C@H](NC(=O)[C@H]1CCCCN1C)C(=O)N(C)[C@H](C[C@@H](OC(C)=O)c1nc(C(=O)N[C@@H](Cc2ccccc2)C[C@H](C)C(=O)O)cs1)C(C)C	8.96	9.34	9.89	3	9.48
CC[C@H](C)[C@H](NC(=O)[C@H]1CCCN1C)C(=O)N(C)[C@H](C[C@@H](OC(C)=O)c1nc(C(=O)N[C@@H](Cc2ccccc2)C[C@H](C)C(=O)OC)cs1)C(C)C	8.10	8.54	9.17	6	8.90
CC[C@H](C)[C@H](NC(=O)[C@@]1(C)CCCN1C)C(=O)N(C)[C@H](C[C@@H](OC(C)=O)c1nc(C(=O)N[C@@H](Cc2ccccc2)C[C@H](C)C(=O)OC)cs1)C(C)C	8.26	9.05	9.35	5	8.98
CC[C@H](C)[C@H](NC(=O)[C@@]1(C)CCCN1C)C(=O)N(C)[C@H](C[C@@H](OC(C)=O)c1nc(C(=O)N[C@H](CNS(C)(=O)=O)Cc2ccccc2)cs1)C(C)C	7.03	8.03	8.31	18	8.27
CC[C@H](C)[C@H](NC(=O)[C@@]1(C)CCCN1C)C(=O)N(C)[C@H](C[C@@H](OC(C)=O)c1nc(C(=O)N[C@@H](Cc2ccc(N)cc2)C[C@H](C)C(=O)O)cs1)C(C)C	8.56	8.95	9.05	5	9.30
CCNC(=O)O[C@H](C[C@H](C(C)C)N(C)C(=O)[C@@H](NC(=O)[C@@]1(C)CCCN1C)[C@@H](C)CC)c1nc(C(=O)N[C@@H](Cc2ccc(N)cc2)C[C@H](C)C(=O)O)cs1	8.34	8.72	8.71	6	9.11
CC[C@H](C)[C@H](NC(=O)[C@@]1(C)CCCN1C)C(=O)N(C)[C@H](C[C@@H](OC(C)=O)c1nc(C(=O)NCCc2cscn2)cs1)C(C)C	6.70	7.21	7.48	2	7.06
CC[C@H](C)[C@H](NC(=O)[C@H]1CCCCN1C)C(=O)N(C)[C@H](C[C@@H](OC(C)=O)c1nc(C(=O)N[C@@H](Cc2ccccc2)[C@@H](O)C(=O)OC)cs1)C(C)C	7.87	9.00	9.57	11	8.92
CC[C@H](C)[C@H](NC(=O)[C@@]1(C)CCCN1C)C(=O)N(C)[C@H](C[C@@H](OC(C)=O)c1nc(C(=O)NCCn2nnc3ccccc32)cs1)C(C)C	7.33	7.93	8.04	4	7.94
CC[C@H](C)[C@H](NC(=O)[C@H]1CCCCN1C)C(=O)N(C)[C@H](C[C@@H](OC(C)=O)c1nc(C(=O)N[C@@H](Cc2ccccc2)C(=O)N2CCCCC2)cs1)C(C)C	7.70	8.17	8.20	5	8.43
CC[C@H](C)[C@H](NC(=O)[C@H]1CCCCN1C)C(=O)N(C)[C@H](C[C@@H](OC(C)=O)c1nc(C(=O)NCCn2nnc3ccccc32)cs1)C(C)C	7.81	8.91	9.08	11	8.84
CC[C@H](C)[C@H](NC(=O)[C@H]1CCCCN1)C(=O)N(C)[C@H](C[C@@H](OC(C)=O)c1nc(C(=O)N[C@@H](Cc2ccccc2)C[C@H](C)C(=O)OC)cs1)C(C)C	6.85	8.11	8.77	54	8.59
CC[C@H](C)[C@H](NC(=O)[C@H]1CCCCN1C)C(=O)N(C)[C@H](C[C@@H](OC(C)=O)c1nc(C(=O)N[C@@H](Cc2ccccc2)CN2CCOCC2)cs1)C(C)C	8.26	9.31	9.51	5	8.99
CC[C@H](C)[C@H](NC(=O)[C@H]1CCCCN1C)C(=O)N(C)[C@H](C[C@@H](OC(C)=O)c1nc(C(=O)N[C@@H](Cc2ccccc2)c2nccs2)cs1)C(C)C	7.87	8.52	9.02	4	8.45
CC[C@H](C)[C@H](NC(=O)[C@H]1CCCCN1C)C(=O)N(C)[C@H](C[C@@H](OC(C)=O)c1nc(C(=O)NCCc2cscn2)cs1)C(C)C	7.76	8.05	8.19	5	8.43
CC[C@H](C)[C@H](NC(=O)[C@H](NC)C(C)C)C(=O)N(C)[C@H](C[C@@H](OC(C)=O)c1nc(C(=O)N[C@@H](Cc2ccccc2)C[C@H](C)C(=O)OC)cs1)C(C)C	7.47	9.05	8.97	19	8.75
CC[C@H](C)[C@H](NC(=O)[C@@H]1C[C@@H](O)CN1C)C(=O)N(C)[C@H](C[C@@H](OC(C)=O)c1nc(C(=O)N[C@@H](Cc2ccccc2)C[C@H](C)C(=O)OC)cs1)C(C)C	6.10	6.97	7.57	35	7.65
CC[C@H](C)[C@H](NC(=O)[C@@]1(C)CCCN1C)C(=O)N(C)[C@H](C[C@@H](OC(C)=O)c1nc(C(=O)NC(CO)Cc2ccccc2)cs1)C(C)C (mixture of isomers)	7.16	7.54	7.78	4	7.74
CC[C@H](C)[C@H](NC(=O)[C@@]1(C)CCCN1C)C(=O)N(C)[C@H](C[C@@H](OC(C)=O)c1nc(C(=O)N[C@@H](Cc2ccccc2)C(O)c2nccs2)cs1)C(C)C (mixture of isomers)	7.40	7.95	8.19	5	8.06
